Drawing on ChEMBL document CHEMBL4334471, “Discovery of 1,8-disubstituted-[1,2,3]triazolo[4,5-c]quinoline derivatives as a new class of Hippo signaling pathway inhibitors” (Bioorg Med Chem Lett, 2019), this text covers Activity for one compound.

The structures appear in SMILES notation.

The test system of assay [1] is Tyrosine-protein kinase ABL1 (Homo sapiens), P00519 [H396P]. As to the kind of experiment: Inhibition of human ABL1 H396P mutant (27 to end residues) assessed as residual activity at 10 uM using EAIYAAPFAKKK as substrate incubated for 40 mins in presence of [gamma-33ATP] by scintillation counting based radiometry assay relative to control.
Assay [2] has as its system Tyrosine-protein kinase Blk (Homo sapiens), P51451 [UNDEFINED MUTATION]. As to the kind of experiment: Inhibition of recombinant full length human BLK M287V mutant assessed as residual activity at 10 uM using poly(Glu, Tyr) 4:1 as substrate incubated for 40 mins in presence of [gamma-33ATP] by scintillation counting based radiometry assay relative to control.
In assay [3] the target is Casein kinase I isoform epsilon (Homo sapiens) (UniProt P49674). The assay is described as follows: Inhibition of recombinant human CK1epsilon assessed as residual activity at 10 uM using KRRRALS(p)VASLPGL as substrate incubated for 120 mins in presence of [gamma-33ATP] by scintillation counting based radiometry assay relative to control.
Assay [4] concerns the target Dual specificity protein kinase CLK2 (Homo sapiens) (UniProt P49760). The assay is described as follows: Inhibition of recombinant human CLK2 (138 to end residues) assessed as residual activity at 10 uM using YRRAAVPPSPSLSRHSSPHQS(p)EDEEE as substrate incubated 40 mins in presence of [gamma-33ATP] by scintillation counting based radiometry assay relative to control.

The subject of assay [5] is Mast/stem cell growth factor receptor Kit (Homo sapiens), P10721 [V654A]. As to the kind of experiment: Inhibition of recombinant human C-Kit V654A mutant (544 to end residues) assessed as residual activity at 10 uM poly(Glu, Tyr) 4:1 as substrate incubated 40 mins in presence of [gamma-33ATP] by scintillation counting based radiometry assay relative to control.
For assay [6], the target named is Tyrosine-protein kinase Fgr (Homo sapiens) (UniProt P09769). As to the kind of experiment: Inhibition of recombinant human FGR (2 to end residues) assessed as residual activity at 10 uM using poly(Glu, Tyr) 4:1 as substrate at 40 mins in presence of [gamma-33ATP] by scintillation counting based radiometry assay relative to control.
Assay [7] deals with G protein-coupled receptor kinase 3 (Homo sapiens) (UniProt P35626). As to the kind of experiment: Inhibition of recombinant full length human GRK3 assessed as residual activity at 10 uM using casein as substrate at 40 mins in presence of [gamma-33ATP] by scintillation counting based radiometry assay relative to control.
For assay [8], the target named is Mitogen-activated protein kinase 8 (Homo sapiens) (UniProt P45983). As to the kind of experiment: Inhibition of human JNK1alpha1 assessed as residual activity at 10 uM using ATF2 as substrate after 40 mins by [gamma-33ATP] radiometric assay relative to control.
In assay [9] the target is Mitogen-activated protein kinase 10 (Homo sapiens) (UniProt P53779). The assay is described as follows: Inhibition of human JNK3 assessed as residual activity at 10 uM using peptide as substrate after 40 mins by [gamma-33ATP] radiometric assay relative to control.
Assay [10] has as its target Leukocyte tyrosine kinase receptor (Homo sapiens) (UniProt P29376). As to the kind of experiment: Inhibition of recombinant human LTK (450 to end residues) assessed as residual activity at 10 uM using GEEPLYWSFPAKK as substrate after 40 mins in presence of [gamma-33ATP] by scintillation counting based radiometry assay relative to control.
Assay [11] concerns the target Mitogen-activated protein kinase 1 (Homo sapiens) (UniProt P28482). As to the kind of experiment: Inhibition of recombinant full length human MAPK1 assessed as residual activity at 10 uM using myelin basic protein as substrate incubated for 40 mins in presence of [gamma-33ATP by scintillation counting based radiometry assay relative to control.
Assay [12] deals with MAP kinase-activated protein kinase 3 (Homo sapiens) (UniProt Q16644). The assay is described as follows: Inhibition of recombinant human MAPKAPK3 (2 to end residues) assessed as residual activity at 10 uM using KKLNRTLSVA as substrate incubated for 40 mins in presence of [gamma-33ATP by scintillation counting based radiometry assay relative to control.
Assay [13] has as its target Dual specificity mitogen-activated protein kinase kinase 1 (Homo sapiens) (UniProt Q02750). The assay is described as follows: Inhibition of recombinant human MEK1 assessed as residual activity at 10 uM using inactive MAPK2 as substrate incubated for 40 mins in presence of [gamma-33ATP by scintillation counting based radiometry assay relative to control.
Assay [14] concerns Hepatocyte growth factor receptor (Homo sapiens), P08581 [M1250T]. The assay is described as follows: Inhibition of recombinant human MET A1209G/V1290L/M1268T mutant (974 to end residues) assessed as residual activity at 10 uM using KKKGQEEEYVFIE as substrate incubated for 40 mins in presence of [gamma-33ATP by scintillation counting based radiometry assay relative to control.

In assay [15] the test system is Hepatocyte growth factor receptor (Homo sapiens), P08581 [Y1230C]. As to the kind of experiment: Inhibition of recombinant human MET A1209G/V1290L/Y1248C mutant (974 to end residues) assessed as residual activity at 10 uM using KKKGQEEEYVFIE as substrate incubated for 40 mins in presence of [gamma-33ATP by scintillation counting based radiometry assay relative to control.

Assay [16] deals with RAC-gamma serine/threonine-protein kinase (Homo sapiens), Q9Y243 [S472D]. As to the kind of experiment: Inhibition of recombinant human PKBgamma S472D mutant (117 to end residues) assessed as residual activity at 10 uM using GRPRTSSFAEGKK as substrate incubated for 40 mins in presence of [gamma33P]ATP by scintillation counting based radiometry assay relative to control.
Assay [17] concerns the target Serine/threonine-protein kinase PLK1 (Homo sapiens) (UniProt P53350). As to the kind of experiment: Inhibition of recombinant full-length human Plk1 assessed as residual activity at 10 uM using casein as substrate incubated for 40 mins in presence of [gamma33P]ATP by scintillation counting based radiometry assay relative to control.
The species entered for assay [18] is Homo sapiens. The assay is described as follows: Inhibition of recombinant human Plk4 S34T mutant (1 to 273 residues) assessed as residual activity at 10 uM using casein as substrate incubated for 40 mins in presence of [gamma33P]ATP by scintillation counting based radiometry assay relative to control.
Assay [19] is filed under the species Homo sapiens. As to the kind of experiment: Inhibition of recombinant full length human PRAK R291E mutant assessed as residual activity at 10 uM using KKLRRTLSVA as substrate incubated for 40 mins in presence of [gamma33P]ATP by scintillation counting based radiometry assay relative to control.
Assay [20] has as its target Testis-specific serine/threonine-protein kinase 4 (Homo sapiens) (UniProt Q6SA08). The assay is described as follows: Inhibition of recombinant full-length human TSSK4 assessed as residual activity at 10 uM using KKLNRTLSFAEPG as substrate incubated for 40 mins in presence of [gamma33P]ATP by scintillation counting based radiometry assay relative to control.
Another assay is filed under the species Mus musculus. The assay is described as follows: Inhibition of recombinant full length mouse PI3K p110/p65 assessed as residual activity at 10 uM using phosphatidylinositol-4, 5-bisphosphate as substrate incubated for 40 mins in presence of [gamma33P]ATP by scintillation counting based radiometry assay relative to control.

Sequence of RAC-gamma serine/threonine-protein kinase (Homo sapiens), Q9Y243 [S472D] (Q9Y243 whole entry S472D): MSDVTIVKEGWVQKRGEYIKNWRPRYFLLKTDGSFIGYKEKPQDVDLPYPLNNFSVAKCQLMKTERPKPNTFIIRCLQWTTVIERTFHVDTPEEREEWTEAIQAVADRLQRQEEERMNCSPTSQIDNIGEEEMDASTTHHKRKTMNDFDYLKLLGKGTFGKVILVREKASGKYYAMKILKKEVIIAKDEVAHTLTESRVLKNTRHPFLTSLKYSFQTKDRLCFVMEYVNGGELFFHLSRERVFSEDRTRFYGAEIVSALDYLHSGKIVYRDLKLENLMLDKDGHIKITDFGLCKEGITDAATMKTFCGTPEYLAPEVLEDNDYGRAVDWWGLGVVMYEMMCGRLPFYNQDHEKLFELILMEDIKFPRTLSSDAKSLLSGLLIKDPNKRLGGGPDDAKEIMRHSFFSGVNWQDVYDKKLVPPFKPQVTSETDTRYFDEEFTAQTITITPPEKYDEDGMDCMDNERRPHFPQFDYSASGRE
Sequence of Testis-specific serine/threonine-protein kinase 4 (Homo sapiens) (Q6SA08 whole entry): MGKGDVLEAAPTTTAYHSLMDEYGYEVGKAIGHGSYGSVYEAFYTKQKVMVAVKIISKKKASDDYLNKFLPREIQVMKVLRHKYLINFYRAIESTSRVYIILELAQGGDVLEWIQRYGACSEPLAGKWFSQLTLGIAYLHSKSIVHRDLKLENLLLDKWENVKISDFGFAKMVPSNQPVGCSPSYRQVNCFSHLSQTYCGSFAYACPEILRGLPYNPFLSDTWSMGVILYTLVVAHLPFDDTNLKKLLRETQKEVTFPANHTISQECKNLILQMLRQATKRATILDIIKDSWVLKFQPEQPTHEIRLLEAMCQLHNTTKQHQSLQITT
Sequence of Mitogen-activated protein kinase 1 (Homo sapiens) (P28482 whole entry): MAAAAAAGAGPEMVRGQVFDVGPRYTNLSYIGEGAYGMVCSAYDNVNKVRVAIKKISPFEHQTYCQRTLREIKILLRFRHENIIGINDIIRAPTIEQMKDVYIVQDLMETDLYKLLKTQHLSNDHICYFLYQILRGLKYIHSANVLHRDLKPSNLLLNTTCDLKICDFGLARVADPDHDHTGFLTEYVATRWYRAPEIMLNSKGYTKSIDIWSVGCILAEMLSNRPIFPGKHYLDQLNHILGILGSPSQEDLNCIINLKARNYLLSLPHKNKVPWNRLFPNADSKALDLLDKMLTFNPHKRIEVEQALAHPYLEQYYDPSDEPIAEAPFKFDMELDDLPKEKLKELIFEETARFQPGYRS
Sequence of Mitogen-activated protein kinase 8 (Homo sapiens) (P45983 whole entry): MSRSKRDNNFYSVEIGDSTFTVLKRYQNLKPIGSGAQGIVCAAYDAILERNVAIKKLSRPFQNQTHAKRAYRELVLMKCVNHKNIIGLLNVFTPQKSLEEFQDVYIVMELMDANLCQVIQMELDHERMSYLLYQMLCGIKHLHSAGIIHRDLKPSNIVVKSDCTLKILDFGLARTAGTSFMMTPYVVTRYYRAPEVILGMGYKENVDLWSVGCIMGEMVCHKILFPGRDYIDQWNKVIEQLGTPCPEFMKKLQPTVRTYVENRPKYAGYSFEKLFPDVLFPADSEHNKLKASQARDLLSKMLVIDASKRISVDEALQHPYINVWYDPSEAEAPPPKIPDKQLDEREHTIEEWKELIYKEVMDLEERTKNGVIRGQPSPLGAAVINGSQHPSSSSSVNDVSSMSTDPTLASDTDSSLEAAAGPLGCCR
Sequence of Dual specificity mitogen-activated protein kinase kinase 1 (Homo sapiens) (Q02750 whole entry): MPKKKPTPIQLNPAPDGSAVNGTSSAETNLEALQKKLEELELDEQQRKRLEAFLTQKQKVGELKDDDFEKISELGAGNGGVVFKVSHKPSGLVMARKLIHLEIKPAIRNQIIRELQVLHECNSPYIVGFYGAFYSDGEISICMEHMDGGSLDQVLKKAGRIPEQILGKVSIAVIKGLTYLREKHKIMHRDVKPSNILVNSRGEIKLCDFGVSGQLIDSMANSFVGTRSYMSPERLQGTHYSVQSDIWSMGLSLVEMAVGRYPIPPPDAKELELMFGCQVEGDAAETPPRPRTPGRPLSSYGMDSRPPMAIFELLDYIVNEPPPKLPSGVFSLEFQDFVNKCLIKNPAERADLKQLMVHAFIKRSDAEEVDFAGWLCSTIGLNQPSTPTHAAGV
Sequence of Tyrosine-protein kinase Blk (Homo sapiens), P51451 [UNDEFINED MUTATION] (P51451 whole entry, looked up, stated change not applied, canonical isoform): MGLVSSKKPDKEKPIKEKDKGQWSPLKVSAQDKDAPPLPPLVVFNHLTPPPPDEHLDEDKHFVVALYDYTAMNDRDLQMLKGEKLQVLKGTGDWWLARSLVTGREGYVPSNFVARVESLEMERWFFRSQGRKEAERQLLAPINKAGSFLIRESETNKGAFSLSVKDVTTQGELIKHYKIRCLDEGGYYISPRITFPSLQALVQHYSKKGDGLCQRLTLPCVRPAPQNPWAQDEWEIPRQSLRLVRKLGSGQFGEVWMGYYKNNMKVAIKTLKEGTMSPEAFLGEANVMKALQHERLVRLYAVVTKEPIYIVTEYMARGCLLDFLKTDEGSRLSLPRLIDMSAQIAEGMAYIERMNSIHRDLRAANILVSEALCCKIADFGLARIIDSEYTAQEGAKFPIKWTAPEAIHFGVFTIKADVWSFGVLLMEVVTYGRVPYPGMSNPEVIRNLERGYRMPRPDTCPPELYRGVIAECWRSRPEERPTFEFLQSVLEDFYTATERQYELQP
Sequence of Serine/threonine-protein kinase PLK1 (Homo sapiens) (P53350 whole entry, the tested form may be a part): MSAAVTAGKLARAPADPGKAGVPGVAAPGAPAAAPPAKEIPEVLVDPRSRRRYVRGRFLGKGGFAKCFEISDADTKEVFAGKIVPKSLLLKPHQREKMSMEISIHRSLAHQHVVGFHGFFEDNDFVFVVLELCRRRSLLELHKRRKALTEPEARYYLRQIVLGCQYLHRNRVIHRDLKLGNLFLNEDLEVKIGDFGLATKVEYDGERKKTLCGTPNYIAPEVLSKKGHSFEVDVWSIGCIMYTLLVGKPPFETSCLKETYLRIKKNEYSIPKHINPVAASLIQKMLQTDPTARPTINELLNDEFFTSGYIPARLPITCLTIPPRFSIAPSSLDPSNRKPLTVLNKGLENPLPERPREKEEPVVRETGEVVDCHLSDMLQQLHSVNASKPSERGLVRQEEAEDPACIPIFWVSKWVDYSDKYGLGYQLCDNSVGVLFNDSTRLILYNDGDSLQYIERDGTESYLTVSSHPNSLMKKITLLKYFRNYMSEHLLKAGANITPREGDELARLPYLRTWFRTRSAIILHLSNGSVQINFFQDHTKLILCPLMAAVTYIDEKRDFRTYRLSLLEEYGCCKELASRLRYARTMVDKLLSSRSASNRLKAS
Sequence of Dual specificity protein kinase CLK2 (Homo sapiens) (P49760 whole entry, looked up): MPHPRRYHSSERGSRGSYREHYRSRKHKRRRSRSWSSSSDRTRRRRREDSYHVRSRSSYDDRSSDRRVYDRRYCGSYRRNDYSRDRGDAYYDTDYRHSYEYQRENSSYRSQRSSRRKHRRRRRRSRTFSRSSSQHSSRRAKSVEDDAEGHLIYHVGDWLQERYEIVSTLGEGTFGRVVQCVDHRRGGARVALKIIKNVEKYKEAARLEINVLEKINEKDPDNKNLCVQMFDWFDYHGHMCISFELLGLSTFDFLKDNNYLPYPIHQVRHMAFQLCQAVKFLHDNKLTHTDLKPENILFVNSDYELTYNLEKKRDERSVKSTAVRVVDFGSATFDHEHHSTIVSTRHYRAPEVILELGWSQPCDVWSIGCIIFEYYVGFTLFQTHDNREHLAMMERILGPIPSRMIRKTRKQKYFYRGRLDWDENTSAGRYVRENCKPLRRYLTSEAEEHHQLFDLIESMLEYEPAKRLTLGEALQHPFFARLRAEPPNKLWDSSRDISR
Sequence of Tyrosine-protein kinase Fgr (Homo sapiens) (P09769 2-529 limits assumed): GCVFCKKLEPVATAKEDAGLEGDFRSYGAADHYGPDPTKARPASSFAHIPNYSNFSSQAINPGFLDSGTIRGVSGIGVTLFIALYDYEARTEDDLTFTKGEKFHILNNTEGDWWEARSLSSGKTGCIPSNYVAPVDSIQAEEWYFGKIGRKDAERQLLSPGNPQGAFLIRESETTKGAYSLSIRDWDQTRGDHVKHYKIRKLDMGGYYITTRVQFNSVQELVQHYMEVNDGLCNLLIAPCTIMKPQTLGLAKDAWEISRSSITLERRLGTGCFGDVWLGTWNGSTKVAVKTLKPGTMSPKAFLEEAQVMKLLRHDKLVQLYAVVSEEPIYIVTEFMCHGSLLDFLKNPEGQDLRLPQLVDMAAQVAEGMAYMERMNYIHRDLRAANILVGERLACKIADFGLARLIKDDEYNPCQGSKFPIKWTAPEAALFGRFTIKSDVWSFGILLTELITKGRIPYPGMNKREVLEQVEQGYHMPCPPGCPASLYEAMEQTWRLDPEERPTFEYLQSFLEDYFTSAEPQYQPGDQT
Sequence of Leukocyte tyrosine kinase receptor (Homo sapiens) (P29376 whole entry): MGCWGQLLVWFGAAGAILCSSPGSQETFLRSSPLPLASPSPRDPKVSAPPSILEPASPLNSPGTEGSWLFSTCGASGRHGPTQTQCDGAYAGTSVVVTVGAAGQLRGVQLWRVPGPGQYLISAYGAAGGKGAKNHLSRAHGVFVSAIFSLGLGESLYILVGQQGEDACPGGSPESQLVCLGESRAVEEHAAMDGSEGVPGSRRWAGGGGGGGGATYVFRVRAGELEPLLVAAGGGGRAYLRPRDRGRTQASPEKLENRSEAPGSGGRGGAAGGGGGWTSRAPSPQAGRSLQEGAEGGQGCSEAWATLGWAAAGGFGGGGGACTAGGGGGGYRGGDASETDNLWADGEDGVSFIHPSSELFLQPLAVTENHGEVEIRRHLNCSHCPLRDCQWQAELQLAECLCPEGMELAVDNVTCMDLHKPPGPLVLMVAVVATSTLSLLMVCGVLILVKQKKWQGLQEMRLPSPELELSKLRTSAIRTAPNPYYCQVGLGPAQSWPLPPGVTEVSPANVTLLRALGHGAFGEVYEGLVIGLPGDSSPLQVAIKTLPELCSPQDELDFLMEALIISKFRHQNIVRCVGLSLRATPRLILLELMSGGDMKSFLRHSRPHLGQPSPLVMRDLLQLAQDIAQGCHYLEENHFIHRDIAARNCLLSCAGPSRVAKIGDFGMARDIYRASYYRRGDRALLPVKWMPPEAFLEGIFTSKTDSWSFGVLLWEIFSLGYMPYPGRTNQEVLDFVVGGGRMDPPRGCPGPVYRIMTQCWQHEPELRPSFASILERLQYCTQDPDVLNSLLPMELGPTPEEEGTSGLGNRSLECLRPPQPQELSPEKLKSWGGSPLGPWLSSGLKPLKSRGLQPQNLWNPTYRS

Take `C[C@@H](c1ccccc1)n1nnc2cnc3ccc(-c4cnc5[nH]ccc5c4)cc3c21`: the Activity in assay [1] is -1%; in assay [2], 8%; in [3], 32%; in assay [4], 30%; in assay [5], 109%; in assay [6] it was 5%. For the same compound, the Activity in assay [7] came to 110%; in [8], 105%; in assay [9], 47%; in assay [10], 39%; in assay [11], 100%; in assay [12], 76%. Besides, the Activity in assay [13] was 85%; in [14], 45%; in assay [15] it was 49%; in assay [16], 48%; in assay [17], 105%; in the assay listed under Homo sapiens [18], 82%. Further, the Activity was found to be 87% in the assay filed under Homo sapiens [19], 77% in assay [20] and 14% in the assay filed under Mus musculus.
